These results are taken from patent US20230226230A1, “THIOPURINE-BASED COMPOUND, COMPOSITION, METHOD OF PREPARATION AND APPLICATIONS” (SEECURE TAIWAN CO., LTD., priority 2021, published 2023).

One data set deals with MCF-7 tumors. The experiment in a line: Imaging of nude mice bearing breast tumors, MCF-7 tumor. The following applies: MCF-7, at 0.5 hrs.
Another data set relates to MDA-MB-231 tumors. The experiment in a line: Imaging of nude mice bearing breast tumors, MDA-MB-231 tumor. Particulars: MDA-MB-231, at 0.5 hrs.
Data set [1] relates to various human lymphoma cells (mantle cell lines). The experiment in a line: In vitro MTT cytotoxicity assay, human lymphoma cells. The data set is classed as cell-based. From the text: (§1) Effect of Compound SC-06-K analogues were selected to test their feasibility against representative mantle cell lines and diffuse large B-cell lymphoma (DLBCL) cell lines using cell viability assays.
In general terms: Formazan colour is commonly taken as a measure of viable cells.

Data set [2] deals with human diffuse large B-cell lymphoma cells. The experiment in a line: In vitro MTT cytotoxicity assay, DLBCL cells. The following applies: various human diffuse large B-cell lymphoma cells. It counts as cell-based.
Excerpt: as §1

Entries after “also recorded” stand apart in the source; their conditions may differ.

`OC[C@H]1OC(O)[C@H]([18F])[C@@H](O)[C@@H]1O` (stereo partly shown) [^18F-FDG, 2′-fluorodeoxyglucose]: the “Tumor/muscle count density ratios” value stood at 0.28 with MCF-7 tumors and 0.25 in the data set on MDA-MB-231 tumors.

As for `Cn1cnc([N+](=O)[O-])c1Sc1ncnc2c1ncn2CC(O)CN1CCNCCNCCNCC1` (stereo not shown) [SC-06-K-1, Cyclen-Hydroxypropyl-Azathioprine Conjugate], the values for the MTT cytotoxicity result in data set [1] and in data set [2] were “inhibited cancer cells in dose-dependent manners; also recorded: inhibited cancer cells in a dose-dependent manner” and “inhibited various human diffuse large B-cell lymphoma cells in a dose-dependent manner; also recorded: inhibited cancer cells in a dose-dependent manner”, respectively.
